# Assay results taken from patent US20220257523A1, “COMPOSITE DRUG PARTICLES AND USES THEREOF” (The Regents of the University of Michigan, priority 2019, published 2022).
# Experiments:
# [1] = system: primary subcutaneous human adipocytes; experiment: Adipocyte lysis assay (MTS viability); format: cell-based
# Method: The capability of the particle formulation to kill fat cells was tested by incubating them with primary subcutaneous human adipocytes. The primary subcutaneous human adipocytes cultured in 96-well plates were purchased from Zen-Bio (Research Triangle, NC). Upon arrival, 150 μl of the media was removed from each well, and the cells were incubated at 37° C. and 5% CO2. For the lysis assays, 150 μl of the salt solution or particle suspension of the known concentration in FBS free RPMI-medium were incubated for a known time-point. Afterward, the treatment solution was aspirated, the cells were washed with warm PBS, and 150 μl of a 1:25 dilution in 1×PBS of MTS assay cell titer (purchased from Promega Corporation, Madison, Wis.) was added to each well. Plates were incubated at 37° C. and 5% CO2 for 3 hr until the appearance of the orange color in the untreated control wells and the absorbance was measured at 490 nm. The cell viability was quantified via subtracting the background cell titer absorbance from the absorbance of the desired point and dividing it by the average signal of the untreated cells after subtracting the background.
# [2] = system: inguinal fat pads of genetically obese mice; experiment: In vivo lipolysis after subcutaneous injection into inguinal fat pad; set-up: species or system mice (B6.Cg-Lep^ob/J)
# Method: Animal studies were conducted following the National Institute of Health guidelines for the care and use of laboratory animals and approved by the Institutional Animal Care and Use Committee (IACUC) of the University of Michigan. 8-10 week old female genetically obese (B6.Cg-Lep^ob/J) mice purchased from The Jackson Laboratory were used. The in vivo trials were replicated for 3 animals. All the animals had the same age and the average weight of the animals in each group were matched prior to the initiation of the study.
# In vivo lipolysis assays were performed via subcutaneous injection of rhodamine-loaded deoxycholate microparticles into the inguinal fat pads of genetically obese mice alongside the salt solution and vehicle control. Genetically obese mice were anesthetized using isoflurane, shaved, and subcutaneously injected with 100 μL of the suspension of rhodamine-loaded deoxycholate particles or the solution of deoxycholate salt in saline (25 mg/mL) or vehicle control into their right inguinal fat pad. 100 μL of pure saline was injected into the left fat pad of the animals as the control. The weight and appearance of the animals was tracked over the course of two weeks. One group of the animals received a second dosage of particles on Day 7. After 14 days, the animals were euthanized, the right and left fat pad of the animals were removed, weighed, and fixed in 10% formalin solution overnight. Histology slides of the samples were prepared via paraffin embedding and standard hematoxylin and eosin staining. The histology slides were analyzed by blindfolded physicians and the digital scans were analyzed using QuPath software.
# [3] = system: Human umbilical vein endothelial cells (HUVECs); experiment: HUVEC cell lysis assay (MTS viability)
# Method: After the desired time-point, the treatment solution/suspension was removed from the wells, the cells were washed with warm 1X phosphate buffered saline (PBS) and incubated with 1 ml of the 1:25 dilution of MTS assay cell titer (Promega, WI) in 1×PBS at 37° C. and 5% CO2 for 2 hr until the appearance of the orange color in the untreated control wells. The absorbance was then measured at 490 nm, and each condition was repeated in triplicate. The percentage of the cell viability was quantified via subtracting the background cell titer absorbance from the absorbance of the desired point and dividing it by the average signal of the untreated cells after subtracting the background.
Structure (SMILES),cells killed ([1]; 1% solution in RPMI media),"concentration enough to kill the fat cells ([1]; RPMI media, within 1 hr)",time at which an ulcer developed in all of the animals ([2]; 100 μL of 25 mg/mL in saline s.c. into right inguinal fat pad),"skin bruising and inflammation at the injection site ([2]; 100 μL of 25 mg/mL in saline s.c. into right inguinal fat pad, particles rhodamine-loaded, one or two dosages)","local fat loss in the injected fat pad ([2]; at euthanasia 14 days post-injection, right versus left fat pad)",weight of the animals during the lipolytic treatment ([2]; over two weeks),"histology (H&E) of the right fat pad, evidence of fat lysis ([2]; s.c. injection into right inguinal fat pad)","cells killed ([3]; 0.01% solution in media, 1 hr)","cells still alive ([3]; 0.1% salt in 5% BSA, 3 hr)","cell death ([3]; 0.1% salt in media, 3 hr)","cells killed ([3]; 0.2% salt solution in media, 1 hr)","cells lysed ([3]; concentrations higher than 0.2%, 1 hr)"
C[C@H](CCC(=O)[O-])[C@H]1CC[C@H]2[C@@H]3[C@H](O)C[C@@H]4C[C@H](O)CC[C@]4(C)[C@H]3C[C@H](O)[C@]12C.[Na+] [sodium cholate],all the cells,,,,,,,,,,,
C[C@H](CCC(=O)[O-])[C@H]1CC[C@H]2[C@@H]3CC[C@@H]4C[C@H](O)CC[C@]4(C)[C@H]3C[C@H](O)[C@]12C.[Na+] [sodium deoxycholate],,higher than 0.05%,7-9 days post-injection,severe bruising and inflammation,visual evidence of local fat loss,No significant change,Crown-like structures and significant leukocyte infiltration,~40%,around 25%,nearly all the cells,approximately 95%,all the cells
